{"source": "patent US6653287B1", "about": "“Use of leukemia inhibitory factor and endothelin antagonists” (Genentech, Inc., priority 1995, dated 2003)", "key": {"[1]": {"test_system": "neonatal rat cardiac ventricular myocytes", "assay": "Neonatal rat cardiac myocyte hypertrophy assay (crystal violet stain, microscopic hypertrophy score)", "format": "cell-based", "text": "A miniaturized assay is preferably used to assay the suspected antagonist(s) for hypertrophy-inhibiting activity. In this assay the medium used allows the cells to survive at a low plating density without serum. By plating directly into this medium, washing steps are eliminated so that fewer cells are removed. The plating density is important: many fewer cells and the survival is reduced; many more cells and the myocytes begin to self-induce hypertrophy.\nThe preferred hypertrophy assay comprises:\n(a) pre-coating the wells of 96-well tissue culture plates with a medium containing calf serum, preferably D-MEM/F-12 medium containing 4% fetal calf serum, wherein preferably the wells are incubated with the medium for about eight hours at about 37°C.;\n(c) plating a suspension of myocytes in the inner 60 wells at 7.5×10^4 cells per mL in D-MEM/F-12 medium supplemented with insulin, transferrin, and aprotinin;\n(d) culturing the myocytes for at least 24 hours in the presence of LIF or endothelin;\n(e) adding the test substance;\n(f) culturing the cells with the test substance (preferably for about 24-72 hours, more preferably for about 48 hours); and\n(g) evaluating hypertrophy, preferably after crystal violet stain, by microscopic examination.\n(§1) Neonatal rat cardiac ventricular myocytes were cultured in 96-well plates 35 as described by Pennica et al., supra. Briefly, myocytes were isolated from one-day-old Sprague-Dawley rats by a series of collagenase digestions followed by Percoll™ gradient purification. Iwaki et al., J Biol Chem., 265: 13809-13817 (1990). The myocytes, which band at the lower gradient interface, were collected, washed twice, and re-suspended in D-MEM/F12 medium with 15% (vol/vol) fetal calf serum. The cells were diluted into serum-free D-MEM/F12 medium supplemented with 10 μg/mL transferrin, 1 μg/mL insulin, 1 μg/mL aprotinin, 2-mmol/L glutamine, 100 U/mL penicillin G, and 100 μg/mL streptomycin (assay medium) to a final density of 7.5×10^4 cells per mL. The final serum concentration of this assay medium with cells was <0.1%. Myocytes were plated 200 μL per well in 96-well, flat-bottomed plates that had previously been coated with D-MEM/F12 medium with 4% (vol/vol) fetal calf serum for 8 hours at 37° C. After 24 hours at 37° C. in 5% CO2, test substances were added. Forty-eight hours after the test substances were added, the cells were fixed and stained with 0.5% (wt/vol) crystal violet in methanol and formaldehyde, and the hypertrophy was scored on a scale of 1 to 7 by microscopic evaluation. Untreated cells were used as the negative control and scored as a 3. Toxic effects were scored from 0 to 2. The positive control in each assay was 100 μmol/L phenylephrine, which was scored as 7."}, "[2]": {"test_system": "neonatal rat cardiac ventricular myocytes", "assay": "Myocyte morphology and contractile fiber organization (phallacidin f-actin stain, confocal microscopy)", "format": "cell-based", "conditions": "for organization of contractile fibers (f-actin): 48 hours exposure, fluorescent phallacidin stain", "protocol": "as §1\nThe myocytes were plated in 4-chamber Lab Tek™ glass chamber slides pre-coated for 8 hours with 4% (vol/vol) fetal calf serum in D-MEM/F12 medium and cultured for 24 hours. They were exposed to test substances for 48 hours and then washed 3× in phosphate buffered saline (PBS) and fixed in 95% (vol/vol) ethanol for 15 minutes. The slides were then washed 3×0 in PBS with 0.1% (vol/vol) Tween-20™ surfactant, blocked for 30 minutes with 1% (wt/vol) BSA in PBS with 0.1% Tween-20™ surfactant, and incubated with phallacidin conjugated to BODIPY FL™ brand reagent (10 μg/mL in 1% BSA in PBS) (Molecular Probes, Eugene Oreg.) for 40 minutes to stain the f-actin present in the contractile fibers. The slides were then washed 3× with PBS in 0.1% Tween-20™ surfactant. Images of the phallacidin-stained cells were acquired on a Ultima™ laser-scanning confocal microscope (Meridian Instruments, Okemos, Mich.). A 1.4 NA 60×™ oil-immersion objective was utilized coupled with 488-nm excitation, with the resulting fluorescence measured following a 525-nm long-pass filter. […] The final images were constructed with a maximum fluorescence projection algorithm by compressing the multiple z or depth images into a single two-dimensional representation."}, "[3]": {"test_system": "neonatal rat cardiac ventricular myocytes", "conditions": "neonatal rat cardiac myocytes in culture; Pennica et al. 1995; cited from earlier work"}}, "note": "Square brackets hold non-standard residues; d marks the D form. Peptide text beside a SMILES is read from it."}
{"molecule": "CC(C)C[C@@H]1NC(=O)[C@@H](C(C)C)NC(=O)[C@@H]2CCCN2C(=O)[C@@H](CC(=O)O)NC(=O)[C@@H](Cc2c[nH]c3ccccc23)NC1=O", "note": "[BQ-123] (cyclo(L[dW][dD]P[dV]))", "values": [{"measurement": "inhibition of NCM hypertrophy activity", "setting": "[1]; FIG. 3, 100 μmol/L BQ-123, 50 μg/mL LIF Mab", "value": "partially inhibited"}, {"measurement": "blocking of hypertrophy activity induced by endothelin-1", "setting": "[1]; FIG. 4A/5A, BQ-123 1-100 μmol/L, LIF Mab 0.5-50 μg/mL", "value": "blocked"}, {"measurement": "blocking/neutralization of hypertrophy activity induced by mouse LIF", "setting": "[1]; FIG. 4B/5B, BQ-123 1-100 μmol/L, LIF Mab 0.5-50 μg/mL", "value": "not"}, {"measurement": "blocking of hypertrophy activity induced by phenylephrine", "setting": "[1]; FIG. 4C/5C, BQ-123 1-100 μmol/L, LIF Mab 0.5-50 μg/mL", "value": "not"}, {"measurement": "blocking of hypertrophy activity induced by CT-1", "setting": "[1]; FIG. 4D/5D, BQ-123 1-100 μmol/L, LIF Mab 0.5-50 μg/mL", "value": "not"}, {"measurement": "effect on myocyte morphology by itself", "setting": "[1]; inhibitor alone, no inducer", "value": "no effect"}, {"measurement": "morphology of myocytes treated with NCM plus inhibitor", "setting": "[2]; NCM and BQ-123 or LIF Mab", "value": "resembled those treated with purified LIF"}]}
{"molecule": "CC[C@H](C)[C@H](NC(=O)[C@H](CC(=O)O)NC(=O)[C@H](CC(C)C)NC(=O)[C@H](Cc1c[nH]cn1)NC(=O)[C@@H]1CSSC[C@H](N)C(=O)N[C@@H](CO)C(=O)N[C@H]2CSSC[C@H](NC(=O)[C@H](CCC(=O)O)NC(=O)[C@H](CCCCN)NC(=O)[C@H](CC(=O)O)NC(=O)[C@H](CCSC)NC(=O)[C@H](CC(C)C)NC(=O)[C@H](CO)NC(=O)[C@H](CO)NC2=O)C(=O)N[C@@H](C(C)C)C(=O)N[C@@H](Cc2ccc(O)cc2)C(=O)N[C@@H](Cc2ccccc2)C(=O)N1)C(=O)N[C@H](C(=O)N[C@@H](Cc1c[nH]c2ccccc12)C(=O)O)[C@@H](C)CC", "note": "[endothelin-1]", "values": [{"measurement": "hypertrophic response (myocyte cell size and ANP production)", "setting": "[1]; purified factors, even at nanomolar concentrations", "value": "partial hypertrophic responses"}, {"measurement": "morphology of myocytes", "setting": "[2]; 48-hour exposure to maximal concentrations", "value": "more compact with no processes"}, {"measurement": "organization of contractile fibers (f-actin)", "setting": "[2]", "value": "not organized in parallel, had a tangled appearance, and did not show prominent banding"}]}
{"molecule": "CNC[C@H](O)c1cccc(O)c1", "note": "[phenylephrine]", "values": [{"measurement": "hypertrophy score (positive control)", "setting": "[1]; 100 μmol/L phenylephrine, scale 1 to 7, untreated 3", "value": 7}, {"measurement": "organization of contractile fibers (f-actin)", "setting": "[2]", "value": "organized in parallel arrays with prominent banding"}]}
{"molecule": "CT-1: cardiotrophin-1, member of the family of proteins that bind to GH/cytokine receptors (protein, UniProt Q16619 1-201, looked up) Cardiotrophin-1: MSRREGSLEDPQTDSSVSLLPHLEAKIRQTHSLAHLLTKYAEQLLQEYVQLQGDPFGLPSFSPPRLPVAGLSAPAPSHAGLPVHERLRLDAAALAALPPLLDAVCRRQAELNPRAPRLLRRLEDAARQARALGAAVEALLAALGAANRGPRAEPPAATASAASATGVFPAKVLGLRVCGLYREWLSRTEGDLGQLLPGGSA", "values": [{"measurement": "hypertrophy activity among proteins that bind GH/cytokine receptors", "setting": "[3]", "value": "most potent hypertrophy activity"}]}
